Test results reported in patent publication US20230364109A1, “GANAXOLONE FOR USE IN TREATMENT OF SUPER REFRACTORY STATUS EPILEPTICUS” (MARINUS PHARMACEUTICALS, INC., priority 2020, published 2023).

What was measured:
[1] = toxicology studies in animals focusing on prenatal and neonatal development; type: in vivo
Description: Ganaxolone has been administered to infants with severe forms of epilepsy as early as 4 months of age. In clinical trials involving administration of ganaxolone over several weeks, the study drug has been tapered off over a 1 to 2-week period.

[2] = system: γ-aminobutyric acid type A (GABAA) receptors; settings: Carter et al 1997; cited from earlier work
[3] = cited from earlier work
progesterone receptor = target: T1, progesterone receptor (Homo sapiens, UniProt P06401); test: activation of the progesterone receptor (hormonal activity); settings: directly or via metabolic conversion
T1 sequence (P06401 1-933): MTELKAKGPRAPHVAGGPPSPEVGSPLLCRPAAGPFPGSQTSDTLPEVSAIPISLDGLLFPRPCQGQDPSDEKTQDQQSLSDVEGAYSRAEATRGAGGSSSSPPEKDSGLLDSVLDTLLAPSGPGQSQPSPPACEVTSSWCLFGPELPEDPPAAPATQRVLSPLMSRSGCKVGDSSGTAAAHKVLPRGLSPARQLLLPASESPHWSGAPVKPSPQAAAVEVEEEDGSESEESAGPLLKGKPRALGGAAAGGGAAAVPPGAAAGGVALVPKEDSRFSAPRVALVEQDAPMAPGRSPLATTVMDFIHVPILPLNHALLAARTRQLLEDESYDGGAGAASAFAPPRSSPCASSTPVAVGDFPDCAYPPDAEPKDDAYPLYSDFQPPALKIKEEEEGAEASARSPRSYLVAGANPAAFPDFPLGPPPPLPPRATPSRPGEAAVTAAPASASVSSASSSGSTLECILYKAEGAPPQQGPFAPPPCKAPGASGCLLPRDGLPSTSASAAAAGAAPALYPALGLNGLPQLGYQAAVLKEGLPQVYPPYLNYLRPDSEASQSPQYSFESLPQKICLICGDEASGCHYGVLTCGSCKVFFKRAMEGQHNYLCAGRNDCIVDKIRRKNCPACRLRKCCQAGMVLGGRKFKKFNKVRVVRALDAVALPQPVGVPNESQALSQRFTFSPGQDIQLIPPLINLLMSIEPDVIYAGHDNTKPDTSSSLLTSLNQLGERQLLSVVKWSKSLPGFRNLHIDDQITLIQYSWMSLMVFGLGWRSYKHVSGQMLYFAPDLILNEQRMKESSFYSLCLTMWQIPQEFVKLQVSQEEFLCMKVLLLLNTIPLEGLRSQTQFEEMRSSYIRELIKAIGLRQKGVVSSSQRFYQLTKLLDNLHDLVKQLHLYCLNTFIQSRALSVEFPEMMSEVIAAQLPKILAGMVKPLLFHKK
Description: Ganaxolone (3α-hydroxy-3β-methyl-5α-pregnan-20-one) is a 3β-methylated synthetic analogue of the endogenous neurosteroid allopregnanolone with similar biological activity (Carter et al., (1997), The Journal of Pharmacology and Experimental Therapeutics, 280:1284-1295), but it is designed to not activate nuclear (classical) progesterone receptors.

[4] = system: super refractory status epilepticus
status epilepticus = test: Case Report 1: IV to enteric GNX in a person with SE; type: in vivo, human
Description: FIGS. 3A-3C show video EEGs in the patient described in Example 2 on day 1 (FIG. 3A), day 2 (FIG. 3B), and day 5 (FIG. 3C). […] Double banana bipolar montage: LFF 1 Hz, HFF 70 Hz; sensitivity, 15 µV/mm; time base, 30 mm/s. EEG, electroencephalogram; HFF, high-frequency filter; LFF, low-frequency filter.
A person with a history of sporadic primarily febrile and rare afebrile convulsive seizures in early childhood had been seizure-free for 10 years off medication until they began to have focal seizures with generalization. Seizure semiology was characterized by eye fluttering with rapid bilateral involvement at times with leftward head/eye deviation as clusters prior to generalization. They had recurrent seizures over the first three weeks and was admitted to an outside hospital for SE requiring intubation. […] They were transferred to the inpatient pediatric rehabilitation unit after being seizure-free for one month on 5 antiseizure medications (cannabidiol, perampanel, phenobarbital, lacosamide, lorazepam), pyridoxine, ketogenic diet, anakinra, and menstrual suppression.
A thorough infectious, metabolic, genetic, vascular and autoimmune evaluation was non-diagnostic. While in the inpatient rehabilitation unit they developed a fever of 41.7° C. and respiratory viral panel was positive for parainfluenza. SE returned requiring transfer to the ICU for midazolam and pentobarbital infusions. […] They were seizure-free for two days after drips were weaned before seizures returned prompting vagus nerve stimulator placement and a prolonged 2-week course of IV pentobarbital titrated to EEG burst suppression. As pentobarbital was weaned off, convulsive seizures returned.
They were granted E-IND approval for a trial of IV to enteric GNX. GNX was administered using an IV bolus followed by infusion over 4 days (with boluses as needed for breakthrough seizures): on day 1 pentobarbital was discontinued; by day 3 clinical and electrographic seizures stopped.
One month after ganaxolone initiation, the patient was transferred to inpatient rehabilitation services and they were discharged home 1 month later. They were weaned off the ketogenic diet, anakinra, and felbamate with minimal breakthrough clinical seizures (only in setting of intercurrent illness or decreasing ASMs). […] Patient continues to be on ganaxolone and 4 other ASMs (valproic acid, brivaracetam, lorazepam, perampanel). See, FIGS. 1, 2, and 3A-3C.

CC(=O)[C@H]1CC[C@H]2[C@@H]3CC[C@H]4C[C@](C)(O)CC[C@]4(C)[C@H]3CC[C@]12C [ganaxolone, 3α-hydroxy-3β-methyl-5α-pregnan-20-one]
prenatal and neonatal developmental toxicity [1]: have not demonstrated toxicities
action on GABAA receptors in the CNS [2]: positive allosteric modulator
half-life ([3]; human plasma, oral administration, Nohria and Giller 2007): approximately 20 hours
oral bioavailability ([3]; in contrast to allopregnanolone): orally bioavailable
Tmax ([3]; in vivo): short
activation of the progesterone receptor (progesterone receptor): does not activate the progesterone receptor directly or indirectly
time to improvement on EEG ([4]; after IV GNX bolus 0.64 mg/kg): ≤ 10 min
clinical seizures after hospitalization ([4]; four weeks after discharge, on oral GNX, 20 seizures per day at baseline): no clinical seizures
time of IV GNX until extubation ([4]; in vivo, iv): 48 h
day by which clinical and electrographic seizures stopped (status epilepticus; IV bolus followed by infusion over 4 days): ≤ 3 days
video EEG finding (FIG. 3C) (status epilepticus; day 5 of protocol, transition from IV to enteric GNX): cessation of seizures
seizure status after transition from IV to enteric GNX (status epilepticus; from Day 5): has remained seizure-free
durability of response (status epilepticus; more than one year later): response to ganaxolone and seizure cessation were sustained
